In patent US20190298702A1, “COMPOSITIONS AND METHODS FOR TREATING PRURITUS” (priority 2018, published 2019):
Counter-ions that a name gives are not always drawn. Like-named read-outs stand apart in the source and are kept apart here.

Experiments:
[1] = Ex vivo skin drug permeation and penetration, MedFlux-HT diffusion cell system; format: in vitro ADME, human
Protocol: The ten formulations listed in Table 7 were used to evaluate the penetration of drug into human skin using the MedFlux-HT™ diffusion cell system. In this study, human skins with about 500±50 μm thickness were fixed on the MedFlux-HT diffusion cell system. About 10 mg of test formulation was applied to the epidermal side of the human skin, and a continued flow of receiver fluid was place at the opposite side of the skin. Because SDE is rapidly converted into nalbuphine by the esterases in the biological environment, both nalbuphine and SDE concentration were measured to access the drug permeation status. The concentration of nalbuphine and SDE in receiver fluid indicated the amount of drug that had penetrated through the human skin.
Tissue levels of SDE and nalbuphine in the dermis and epidermis, and the amount of SDE and nalbuphine in the receiver fluids over 24 hours were determined and are shown in FIG. 1A and FIG. 1B. SDE and nalbuphine were both detected in receiver fluid, dermis, and epidermis. The cumulative amounts of SDE and nalbuphine in receiver fluid recovered at 24 hours were 89-1978 ng/cm^2 and 169-978 ng/cm^2, respectively.
These formulations were used to evaluate the penetration of drug into human skin using the MedFlux-HT™ diffusion cell system according to Example 8.

[2] = Adverse signs and mortality after SC administration of SDE; format: in vivo, mouse; settings: SC at 10 mL/kg
Protocol: (§1) Compared to the placebo control group, SDE (administered SC at 10 mL/kg) was associated with significant reduction of substance P-induced scratching behaviors at 4 hours (18.8±11.8 bouts) and 12 hours (24.5±4.1 bouts) post treatment. […] However, SC administration of SDE would cause high concentration of nalbuphine in the circulation and induce serious adverse effects.

[3] = test system: substance P-induced scratching; experiment: Mouse substance P-induced scratching model, subcutaneous SDE; format: in vivo; settings: for substance P-induced scratching bouts: SC, 75 mg/mL oily formulation at 10 mL/kg, 30-minute observation
Protocol: The time-course and antipruritic effects of SDE via subcutaneous (SC) injection were studied in the mouse substance P-induced scratching model to evaluate the effect of SDE's antipruritic effect. In this study, SDE was dissolved in an oily formulation, with a concentration at 75 mg/mL.
Substance P, the endogenous ligand for the neurokinin-1 (NK-1) receptor, is a significant mediator of pruritus. […] Intradermal injection of substance P elicits an itch sensation in human subjects, and an associated itch response in mice.
as §1

[4] = format: physicochemical
Protocol: Individual excipients were investigated to determine their compatibility with SDE (at 50° C. for 2 and 4 weeks) for potential use in a topical formulation.

[5] = Whole blood concentration of nalbuphine after the scratching observation; format: in vivo; settings: ICR, mouse, subcutaneous, 30 mg/kg, SC at 0.5 hour, read-out: effective systemic concentration of nalbuphine (whole blood)
Protocol: Immediately after the scratching observation of Example 11, whole blood was collected from each mouse via the vena cava, and the nalbuphine concentration in each sample was determined.
Immediately after the scratching observation of Example 14, whole blood was collected from each mouse via the vena cava, and the nalbuphine concentration in each sample was determined.

[6] = test system: substance P-induced scratching; experiment: Mouse substance P-induced scratching model, topical application; format: in vivo; settings: 30 mg/kg, SC, 0.5 hour post treatment
Protocol: Groups of 10 or 20 male ICR mice weighing 23±3 grams were used. One day before testing, hair was removed at the substance P injection sites. […] Substance P (250 nmol/site) was injected intradermally (ID) in a volume of 50 μL/site into the rostral portion of the back (the same region as test compound application). As reference, nalbuphine HCl was injected subcutaneously on the lower back region (different site as Substance P challenge). The scratching behavior was recorded for 30 minutes by visual observation immediately after substance P injection.
The time-course and antipruritic effects of the Ointment formulations via topical application were investigated in the mouse substance P-induced scratching model according to Example 11. On the testing day, the tested formulations (TA-1, TA-2, TA-3, and TA-4) were applied topically on the rostral portion of the back (2×2 cm region) at 4 hours prior to substance P challenge. 15 male ICR mice were used for each group. As reference, nalbuphine HCl was injected subcutaneously on the lower back region (different site as Substance P challenge). The scratching behavior was recorded for 30 minutes by visual observation immediately after substance P injection.

[7] = four ointment formulations of Table 13

O=C(CCCCCCCCC(=O)Oc1ccc2c3c1O[C@H]1[C@@H](O)CC[C@@]4(O)[C@@H](C2)N(CC2CCC2)CC[C@]314)Oc1ccc2c3c1O[C@H]1[C@@H](O)CC[C@@]4(O)[C@@H](C2)N(CC2CCC2)CC[C@]314 [SDE, Sebacoyl Dinalbuphine Ester]
concentration of SDE in receiver fluid versus concentration of nalbuphine [1, 7]: comparable | concentrations of SDE in dermis and epidermis versus concentrations of nalbuphine [1, 7]: much greater | concentration of SDE in receiver fluid versus concentration of nalbuphine ([1]; ten formulations of Table 7): comparable | concentrations of SDE in dermis and epidermis versus concentrations of nalbuphine ([1]; ten formulations of Table 7): 10 fold | adverse signs observed [2]: signs of depression, tremor and hypothermia | mortality rate ([2]; 24 hours): 7.7% | mortality rate ([2]; 48 hours): 35.7% | suppressive effect on scratching responses ([3]; SC at 10 mL/kg, 24 hours): 45% | attenuation of scratching responses ([3]; SC at 10 mL/kg, 48 hours): loss of activity | substance P-induced scratching bouts ([3]; 4 hours post treatment): 18.8±11.8 bouts | substance P-induced scratching bouts ([3]; 12 hours post treatment): 24.5±4.1 bouts | SDE degradation ([4]; combination of BHT with Transcutol P compared to Transcutol P alone, 50° C.): reduce the degree of SDE degradation | SDE purity (%) ([4]; in Castor oil, 50° C., 2 weeks): 80.20% | SDE purity (%) ([4]; in Castor oil, 50° C., 4 weeks): 75.71% | SDE purity (%) ([4]; in Castor oil, T = 0): 100.00% | SDE purity (%) ([4]; in Diisopropyl adipate, 50° C., 2 weeks): 99.60% | SDE purity (%) ([4]; in Diisopropyl adipate, 50° C., 4 weeks): 99.49% | SDE purity (%) ([4]; in Diisopropyl adipate, T = 0): 100.00% | SDE purity (%) ([4]; in Isopropyl myristate (IPM), 50° C., 2 weeks): 99.51% | SDE purity (%) ([4]; in Isopropyl myristate (IPM), 50° C., 4 weeks): 85.75% | SDE purity (%) ([4]; in Isopropyl myristate (IPM), T = 0): 100.00% | SDE purity (%) ([4]; in Miglyol 810 (Caprylic/Capric triglyceride), 50° C., 2 weeks): 99.66% | SDE purity (%) ([4]; in Miglyol 810 (Caprylic/Capric triglyceride), 50° C., 4 weeks): 99.69% | SDE purity (%) ([4]; in Miglyol 810 (Caprylic/Capric triglyceride), T = 0): 100.00% | SDE purity (%) ([4]; in PEG 400 (pH 4-5) + BHT, 50° C., 2 weeks): 96.38% | SDE purity (%) ([4]; in PEG 400 (pH 4-5) + BHT, 50° C., 4 weeks): 93.24% | SDE purity (%) ([4]; in PEG 400 (pH 4-5) + BHT, T = 0): 98.31% | SDE purity (%) ([4]; in PEG 400 (pH 4-5), 50° C., 2 weeks): 94.01% | SDE purity (%) ([4]; in PEG 400 (pH 4-5), 50° C., 4 weeks): 96.97% | SDE purity (%) ([4]; in PEG 400 (pH 4-5), T = 0): 100.00% | SDE purity (%) ([4]; in Super refined PEG 400 (pH 4-5), 50° C., 2 weeks): 93.17% | SDE purity (%) ([4]; in Super refined PEG 400 (pH 4-5), 50° C., 4 weeks): 92.23% | SDE purity (%) ([4]; in Super refined PEG 400 (pH 4-5), T = 0): 100.00% | SDE purity (%) ([4]; in Transcutol P + BHT, 50° C., 2 weeks): 14.65% | SDE purity (%) ([4]; in Transcutol P + BHT, 50° C., 4 weeks): 4.21% | SDE purity (%) ([4]; in Transcutol P + BHT, T = 0): 96.90% | SDE purity (%) ([4]; in Transcutol P, 50° C., 2 weeks): 5.69% | SDE purity (%) ([4]; in Transcutol P, 50° C., 4 weeks): 1.50% | SDE purity (%) ([4]; in Transcutol P, T = 0): 94.31% | change of SDE purity ([4]; in deionized water (at both pH 4 and 5) and Transcutol P, 50° C. for 2 and 4 weeks): Significant reductions | SDE purity (%) ([4]; in water (pH 4), 50° C., 2 weeks): 28.91% | SDE purity (%) ([4]; in water (pH 4), 50° C., 4 weeks): 14.47% | SDE purity (%) ([4]; in water (pH 4), T = 0): 96.61% | SDE purity (%) ([4]; in water (pH 5), 50° C., 2 weeks): 28.74% | SDE purity (%) ([4]; in water (pH 5), 50° C., 4 weeks): 5.43% | SDE purity (%) ([4]; in water (pH 5), T = 0): 96.83%

Oc1ccc2c3c1O[C@H]1[C@@H](O)CC[C@@]4(O)[C@@H](C2)N(CC2CCC2)CC[C@]314 [nalbuphine HCl]
concentration at 0.5 h [5]: ~207 ng/mL | substance P-evoked scratching behaviors ([6]; versus respective control (Example 11)): significantly reduced | substance P-evoked scratching behaviors ([6]; versus respective control (Example 14)): significantly reduced
